# Assays:
# [1] = Observation of binding form with UCN by TEM and SEM; settings: TEM / SEM after washing off unbound
# Excerpt: The binding forms of RE-1 short peptide and REOB-1 phage with UCN were observed using a transmission electron microscope. The excess unbound polypeptides and phages were washed off from the complex of RE-1 and UCN. The complex was stained with uranium acetate (pH 6.7), and placed on a copper mesh coated with carbon film. A transmission electron microscope TEM (200 kV) (JEM-2100F, JEOL, Japan) was used for observation and imaging (FIG. 5A and FIG. 5B).
# The binding form of RE-1 peptide to UCN was observed under a scanning electron microscope. The excess unbound polypeptides were washed off from the complex of RE-1 and UCN. The complex was placed on a copper mesh. A scanning electron microscope SEM (15 kV) (JEOL JSM-6700F, JEOL, Japan) was used for observation and imaging (FIG. 5C).
# [2] = Binding of FITC-RE-1 to UCP (time, concentration, pH, salt, temperature); settings: 10 μg FITC-RE-1, 100 μg UCP
# Description: 10 μg of FITC-RE-1 was incubated with 100 μg of UCP for different time periods (2 min, 10 min, 30 min, 120 min, and 720 min). Then, the amount of FITC-RE-1 fluorescent peptide binding to UCP was measured by using fluorescence spectrophotometer.
# 100 μg of UCP was incubated with FITC-RE-1 at various concentrations (1 μg, 5 μg, 10 μg, and 20 μg) for 1 hr. The excess and unbound peptides were washed off. The amount of FITC-RE-1 fluorescent peptide binding to UCP was measured by using fluorescence spectrophotometer.
# (§1) 10 μg of FITC-RE-1 was incubated with 100 μg of UCP dissolved at different pH values (pH 3, 5, 7, 10) for 1 hr. The excess and unbound peptides were washed off. The amount of FITC-RE-1 fluorescent peptide binding to UCP was measured by using fluorescence spectrophotometer.
# as §1, with “salt ion concentrations (0 M, 0.15 M, 0.3 M, and 0.5 M NaCl)” for “pH values (pH 3, 5, 7, 10)”
# as §1, with “dissolved in water” for “dissolved”, “temperatures (25° C., 37° C., 55° C., and 80° C.)” for “pH values (pH 3, 5, 7, 10)”
# [3] = test system: living HeLa cells, the immobilized cells, and the cell culturing plate; experiment: Nonspecific adherence of nanophosphors with or without RE-1 coating; type: cell-based; settings: 2 hr treatment, washed 3 times with PBS
# Description: Living HeLa cells (purchased from Institute of Biochemistry and Cell Biology, SIBS, CAS) cultured in a 96-well plate, immobilized cells, and cell culturing plate were treated with UCN and UCN-S with or without RE-1 coating for 2 hr, respectively, and then washed with PBS for 3 times. The binding of UCN nanoparticles to the living HeLa cells, the immobilized cells, and the cell culturing plate was observed under a fluorescence microscope (Olympus IX71, Olympus, Japan) equipped with a 980 nm infrared laser (MDL-980 nm 1W, Changchun New Industries Optoelectronics Tech. Co., Ltd, China).
# LC3 II in HeLa cells = experiment: Western blotting of LC3 in HeLa cells; type: cell-based
# Description: Western blotting is performed as follows: After an incubation of 24 h, the cells are collected and lysed with lysis buffer (purchased from Beyotime Biotechnology, China). The lysate is boiled in boiling water for 10 min, subjected to 15% SDS-PAGE, and then transferred to nylon membrane (purchased from Amersham Inc.) by a wet transfer. In the Western blotting, Anti-LC3 (Light Chain 3 Protein Antibody, purchased from Novus Inc., Catalog #: NB 100-2220) is used as primary antibody; GAPDH (purchased from Millipore Inc.) is used as internal reference; and Horseradish peroxidase (HRP) conjugated goat anti-rabbit IgG (H+L) (Goat Anti-Rabbit IgG (H+L), HRP Conjugate) (purchased from Promega Inc.) is used as secondary antibody.
# HeLa cells were inoculated into a 24-well cell culturing plate at a density of about 3-5×10^4 cells/well, and cultured overnight for further use. At first, the medium was replaced with fresh DMEM medium, and then 100 μg/mL UCN or UCN+RE-1 was added. An equal volume of PBS was used as blank. A mixture of 100 μg/mL UCN and 10 mg/mL PEG was used as negative control. 100 mM trehalose was used as positive control. Then, western blotting assay was performed.
# HeLa cells were inoculated into a 24-well cell culturing plate at a density of about 3-5×10^4 cells/well, and cultured overnight for further use. At first, the medium was replaced with fresh DMEM medium, and then 100 μg/mL UCP or UCP+RE-1 was added. An equal volume of PBS was used as blank. A mixture of 100 μg/mL UCP+AP-1 and a mixture of 400 μg/mL TiO2+AP-1 were used as negative control. 400 μg/mL TiO2 was used as positive control. Then, western blotting assay was performed.
# mice liver = experiment: Autophagosome formation in mice livers by transmission electron microscope; type: in vivo, Balb/c mice; settings: RE-1 with UCN, PEG with UCN, AP-1 with UCP
# Description: Balb/c mice (purchased from SLAC Laboratory Animal (Shanghai, China), 6 weeks old, and weighed 20 g when used) were bred in a sterile housing, and then 300 μg (dosage: 15 mg/kg) UCN, UCN+PEG (containing 10 mg PEG), UCN+RE-1, UCP, UCP+RE-1, or UCP+AP-1 was injected through tail vein. An equal volume of normal saline was injected as a control. After 24 hr, the livers of the mice were removed and subjected to western blotting assay.
# The mice livers obtained as described in Example 21 were in situ fixed with 2.5% glutaral-dimethyl arsine buffer (pH 7.4) at 4° C. for 1 hr, then fixed with 2% osmium tetroxide at room temperature for 1 hr, and then dehydrated with ethanol gradients. Then, the cell samples were embedded into epoxy resin (EPON812). The embedded cell samples were cut into ultrathin slices, which were stained with uranyl acetate and lead citrate, and observed and imaged under a transmission electron microscope (JEOL-1230, JEOL, Japan).
sequence,measurement,setting,value
"ACTARSPWICG [RE-1, RE-0 with terminal amino acids A and G added]",binding form on the surface of UCN,[1],form a stable peptide coating on the surface of UCN
same,binding to UCP at 2 min,[2]; 2 min,50%
same,binding to UCP at 10 min,[2]; 10 min,almost binding saturation
same,nonspecific adherence of UCN coated with RE-1 versus UCN without RE-1 coating,[3],about 10 times lower
same,nonspecific adherence of UCN-S coated with RE-1 versus UCN-S without RE-1 coating,[3],about 100 times lower
same,effect of RE-1 coating of UCN and UCP on LC3 II,LC3 II in HeLa cells; 100 μg/mL UCN+RE-1 or UCP+RE-1,significantly prevented the increase of LC3 II
same,inhibition of cell autophagy induced by TiO2,LC3 II in HeLa cells; 400 μg/mL TiO2,could not inhibit
same,"inhibition of autophagosome formation induced by nanophosphors (UCN, UCP) in liver",mice liver,significantly inhibited
